Measured values from patent US4603139A, “Bicycle compounds, processes for their preparation and pharmaceutical formulations containing compounds” (Burroughs Wellcome Co., priority 1981, dated 1986).
Values after ≈ are worked out from the molar mass of the structure shown. Counter-ions that a name gives are not always drawn.

Key:
[1] = test system: right ventricular papillary muscle; experiment: in vitro inotropic activity (isolated right ventricular papillary muscle); format: cell-based, guinea-pig; details: 75% increase in basal contractile force (Fc), carazolol 5×10^-8 M present, 34° C., cumulative additions; for EC75: Cavia porcellus, read-out: Potency for 75% increase Fc lying within the range
Experimental: The heart was rapidly excised and washed with Krebs-Henesleit solution containing the β-adrenoceptor antagonist carazolol (5×10^-8 M) and gassed with 95% O2 : 5% CO2 at 34° C. The heat was transferred to a petri dish containing the same buffer kept at a constant temperature (34° C.) throughout the dissection. Fresh buffer was used for each dissection and washings were discarded after use. A single right ventricular papillary muscle was employed from each heart; the tendinous end ligated to a stainless steel hook and the lower end ligated and cut away from the ventricle wall and attached to a perspex clamp such that the tissue was in contact with a platimum punctate electrode. The stainless steel hook was suspended from a Grass FT.03 transducer which recorded isometric tension. The preparation was placed in a 20 ml pyrex organ bath containing buffer gassed with 95% O2 : 5% CO2 and maintained at 34° C. 500 mg loading tension was applied to the preparation. Stimulation was effected by rectangular pulses of Imsec duration at 1.5 Hz at 30% above the threshold voltage (1-5 volts) by a SRI stimulator. The transducer inputs were coupled to a potentiometric recording device by a 6-channel Grass transducer coupler. After 90 minutes, preparations unable to sustain uniform contractions beyond this period were rejected.

[2] = test system: phosphodiesterase; experiment: phosphodiesterase inhibitory activity; format: biochemical; details: 100 μM, 1 mM and 10 mM; 3H-cAMP 5 uM; guinea pig heart homogenate; 37° C., 30 minutes
Experimental: The determination of phosphodiesterase inhibitory activity was effected by a procedure based on that of Thompson and Appleman (Biochme., 10, 311 (1971)). ^3 H-cAMP (5 uM) is incubated at 37° C. for 30 minutes with the 1000Xg supernatent of a 10% (w/v) homogenate of guinea pig heart in 50 mM-Tris/HCL pH7+5 mM-mgCI2 in either the presence or the absence of the compound of Example 21 which, in the former case, is dissolved in Tris buffer to give final concentrations of 100 uM, 1 mM and 10 mM. Phosphodiesterase enzyme in the homogenate hydrolyses ^3 H-cAMP to ^3 H-5'-AMP which is further converted to ^3 H-adenosine by a 5'-nucleotidase added to the incubation mixture. After a period of incubation unchanged ^3 H-cAMP is removed by adding ion exchange resin to the mixture and centrifuging. The ^3 H in the supernatent is assayed by liquid scintillation counting and gives a quantitative measure of adenosine formation (i.e. cAMP hydrolysis). Comparison of the ^3 H-adenosine formed in the presence and absence of test compound gives a measure of the PDE-inhibitory activity of the compound.

[3] = test system: anaesthetised, open-chest beagles; experiment: in vivo inotropic and vasodilatory activity; details: Canis lupus familiaris, bolus intravenous, 0.003-3.0 mg/kg; for ED50: increase in dp/dt of left ventricular pressure; for ED30: vasodilatory activity
Experimental: The compounds of Examples 1,2 and 21 were tested in comparison with amrinone and […]. […] This is accompanied by a dose-related increase in aortic blood flow, and a fall in systemic blood pressure (see Table below).

[4] = test system: ADP-induced platelet aggregation; experiment: ex vivo inhibition of platelet aggregation; format: in vivo; details: Macaca mulatta, iv, anaesthetised rhesus monkey, read-out: effective dose causing 50% inhibition of aggregation
Experimental: Rhesus monkeys of both sexes (7.3-9 kg, body weight) were sedated with phencyclidine, subsequently anaesthetised with thiopentone and maintained with sodium pentobarbitone. Catheters were placed in the left femoral artery to record blood pressure and in the left femoral vein for administration of drugs. A further catheter was placed in the contralateral femoral artery for the removal of blood samples. Heart rate was recorded from ECG (standard lead II). A left ventricular catheter was introduced via the left carotid artery to measure left ventricular pressure. […] Rectal temperature of the anaesthetised monkey was maintained at 37°-38° C. via a heated table-pad.
Blood samples (3 ml) were withdrawn into syringes containing trisodium citrate (0.315% w/v final concentration), and spun for […]. The platelet rich-plasma was transferred to a Born-type aggregometer and incubated for 1 min (at 37° C.) prior to the addition of sufficient ADP to induce sub-maximal (1.5-3 μM) or near maximal (8-12 μM) aggregation. Inhibition of aggregation was calculated with reference to at least 2 control samples prior to intravenous infusion of compound A. The sequence of administration of compound A was randomized between experiments. The effective dose of compound A which caused 50% inhibition of aggregation is 1.0 mg/kg i.v. (approximately).

[5] = test system: ischaemic heart; experiment: ventricular vulnerability to arrythmias in the ischaemic heart; format: in vivo
[6] = test system: myocardial injury; experiment: myocardial injury following selective ligation of the coronary artery in vivo
[7] = test system: ADP-induced platelet aggregation; experiment: in vitro inhibition of platelet aggregation; format: cell-based, rhesus monkey; details: Macaca mulatta, 1 min, platelet-rich plasma, 37° C., read-out: ID50 (dose causing 50% inhibition of platelet aggregation)
Experimental: Blood was freshly collected into siliconized (Siloclad; Clay Adams) plastic (Sterlin Ltd.) tubes containing trisodium citrate (3.15%; 0.1 volume with 0.9 volume blood) and centrifuged (200 g for 15 min) at room temperature. The platelet-rich plasma (PRP) was withdrawn into plastic containers and kept at room temperature. Inhibition of platelet aggregation was determined in a Born-type aggregometer by incubating aliquots (0.5 ml) of the PRP for 1 min at 37° C. with or without compound A prior to addition of sufficient adenosine diphosphate (ADP). Dose-inhibition curves were constructed for each compound and the ID50 (dose causing 50% inhibition) was calculated as the dose required to reduce the aggregation to 50% of its control amplitude. The ID50 for compound A is 1 mg/ml (approximately).

[8] = test system: myocardial phosphodiesterase; details: Diederan and Wiesenberger, 1981; cited from earlier work
[9] = test system: myocardial β-adrenoceptors; details: Brutsaert et al 1982; Pouleur et al 1982; cited from earlier work

For “2-(2-methylsulphinyl)-1H-imidazo[4,5-c]pyridine hydrochloride [Example 50]”, which “Potency for 75% increase Fc lying within the range” value [1] is on record?
Its value is > 10^-3 M.

For `COc1ccc(-c2nc3c[n+]([O-])ccc3[nH]2)c(OC)c1` [Example 38, 2-(2,4-Dimethoxyphenyl)-1H-imidazo[4,5-c]pyridineN^5-oxide hydrate], which EC75 [1] is on record?
Its EC75 is over 1000 µM.

Which results are given for `COc1cc([S+](C)[O-])ccc1-c1nc2cnccc2[nH]1` (stereo not drawn) [Example 21, 2-(2-Methoxy-4-methylsulphinylphenyl)-1H-imidazo[4,5-c]pyridine]?
EC75 [1]: 100 to 1000 µM; PDE inhibitory activity [2]: no PDE inhibitory activity; ED50 [3]: 0.063 mg/kg; ED30 [3]: 0.19 mg/kg; ED50 [4]: ~1 mg/kg; effect on ventricular vulnerability to arrythmias [5]: does not increase ventricular vulnerability to arrythmias; effect on myocardial injury [6]: does not exacerbate myocardial injury; IC50 [7]: ~1000 µg/mL (≈ 3.48 mM)

Which results are given for `COc1ccc(-c2nc3cnccc3[nH]2)cc1.Cl.Cl` [Example 2, 2-(4-Methoxyphenyl)-1H-imidazo[4,5-c]pyridine dihydrochloride]?
ED50 [3]: 2 mg/kg; ED30 [3]: 5.1 mg/kg

With `COc1ccc(-c2nc3cnccc3[nH]2)cc1OC` [Example 8, 2-(3,4-dimethoxyphenyl)-1H-imidazo[4,5-c]pyridine dihydrochloride] as the compound, how does the EC75 [1] read?
The EC75 was 10 to 100 µM.

Which EC75 [1] does the source give for `COc1cc(-c2nc3cnccc3[nH]2)cc(OC)c1OC` [Example 3, 2-(3,4,5-trimethoxyphenyl)-1H-imidazo[4,5-c]pyridine dihydrochloride] here?
Its EC75 is over 1000 µM.

Which EC75 [1] does the source give for `COc1ccc(-c2nc3cnccc3[nH]2)cc1[S+](C)[O-]` (stereo not drawn) [Example 35, 2-(3-Methylsulphinyl-4-methoxyphenyl)-1H-imidazo[4,5-c]pyridine] here?
The EC75 was over 1000 µM.

With `COc1ccc(-c2nc3ccncc3n2C)c(OC)c1` [Example 40, 3-Methyl-2-(2,4-dimethoxyphenyl)-1H-imidazo[4,5-c]pyridine] as the compound, how does the EC75 [1] read?
The EC75 was over 1000 µM.

With `COc1ccc(-c2nc3cnccc3n2C)c(OC)c1` [Example 41, 1-Methyl-2-(2,4-dimethoxyphenyl)-1H-imidazo[4,5-c]pyridine] as the compound, how does the EC75 [1] read?
The EC75 was over 1000 µM.

Which EC75 [1] does the source give for `COc1cc(Cl)ccc1-c1nc2cnccc2[nH]1` [Example 10, 2-(2-methoxy-4-chlorophenyl)-1H-imidazo[4,5-c]pyridine hydrochloride] here?
The EC75 was 10 to 100 µM.

What does the source list for `COc1ccc(-c2nc3cnccc3[nH]2)c(OC)c1` [Example 1, 2-(2,4-Dimethoxyphenyl)-1H-imidazo[4,5-c]pyridine]?
EC75 [1]: 100 to 1000 µM; ED50 [3]: 0.13 mg/kg; ED30 [3]: 0.24 mg/kg

With `COc1cc([S+](C)[O-])ccc1-c1nc2cnccc2[nH]1.Cl` (stereo not drawn) [Example 23, 2-(2-Methoxy-4-methylsulphinylphenyl)-1H-imidazo[4,5-c]pyridine hydrochloride] as the compound, how does the “Potency for 75% increase Fc lying within the range” value [1] read?
Its value is 10^-4 -10^-3 M.

Which results are given for `COc1cc([S+](C)[O-])ccc1-c1nc2ncccc2[nH]1` (stereo not drawn) [Vardax, 2-[(2-methoxy-4-methylsulphinyl)phenyl]-1H-imidazo[4,5-b]pyridine, reference compound]?
ED50 [3]: 1 mg/kg; ED30 [3]: 2.11 mg/kg; inhibition of myocardial phosphodiesterase [8]: effective inhibitor of myocardial phosphodiesterase; contribution of myocardial β-adrenoceptor stimulation to positive inotropic stimulation [9]: at least part of the positive inotropic stimulation

Which EC75 [1] does the source give for `CSc1ccccc1-c1nc2cnccc2[nH]1` [Example 29, 2-(2-methylthiophenyl)-1H-imidazo[4,5-c]pyridine hydrochloride] here?
The EC75 was 100 to 1000 µM.

Which EC75 [1] does the source give for `COc1ccc(-c2nc3cnccc3[nH]2)c([S+](C)[O-])c1` (stereo not drawn) [Example 22, 2-(2-Methylsulphinyl-4-methoxyphenyl)-1H-imidazo[4,5-c]pyridine hydrochloride] here?
The EC75 was over 1000 µM.

Which EC75 [1] does the source give for `COc1ccccc1-c1nc2cnccc2[nH]1` [Example 7, 2-(2-methoxyphenyl)-1H-imidazo[4,5-c]pyridine hydrochloride] here?
Its EC75 is 100 to 1000 µM.

For `COc1ccc(-c2nc3cnccc3[nH]2)cc1SC` [Example 34, 2-(3-Methylthio-4-methoxyphenyl)-1H-imidazo-[4,5-c]pyridine dihydrochloride], which EC75 [1] is on record?
Its EC75 is 100 to 1000 µM.

Which results are given for `Nc1cc(-c2ccncc2)c[nH]c1=O` [Amrinone, reference compound]?
ED50 [3]: 1 mg/kg; ED30 [3]: 2 mg/kg

For `COc1cc(S(C)(=O)=O)ccc1-c1nc2cnccc2[nH]1` [Example 32, 2-(2-Methoxy-4-methylsulphonylphenyl)-1H-imidazo[4,5-c]pyridine], which EC75 [1] is on record?
Its EC75 is 100 to 1000 µM.
